Numbered stars: 1 amine (or outer) side, 2 acyl side, 3 side chain; on linkers, the order of the positions; unused ones are H or OH. Bridge positions count the residues as written; N and C are the ends. Square brackets hold non-standard residues; d marks the D form. Peptide text beside a SMILES is read from it. X6 = O=C([C@H](Cc1cccc(OCC=[*:3])c1)N[*:1])[*:2]; Phe(4-COOH) = N[C@@H](Cc1ccc(C(=O)O)cc1)C(=O)O; Phe(4-tBu) = CC(C)(C)c1ccc(C[C@H](N)C(=O)O)cc1; Trp(5-F) = N[C@@H](Cc1c[nH]c2ccc(F)cc12)C(=O)O; mXylylene = c1cc(C[*:1])cc(C[*:2])c1; Bta = N[C@@H](Cc1csc2ccccc12)C(=O)O; X5 = O=C(CN(CCCCC=[*:3])[*:1])[*:2]; X4 = O=C(CN(CCCC=[*:3])[*:1])[*:2]; X7 = O=C(CN(CC=[*:3])[*:1])[*:2]; hCha = N[C@@H](CCC1CCCCC1)C(=O)O; Cha = N[C@@H](CC1CCCCC1)C(=O)O; aThr = C[C@H](O)[C@H](N)C(=O)O; αMeP = C[C@@]1(C(=O)O)CCCN1; hSer = N[C@@H](CCO)C(=O)O; Ahx = NCCCCCC(=O)O; Mpa = O=C(O)CCS

Type in all cases: binding
Test [1] addresses T1, PCSK9 (Homo sapiens, UniProt Q8NBP7).
T1 construct: biotin (biotinylated)
Nature of the test: PCSK9 Alexa FRET Plus assay (displacement of AlexaFluor647 tagged cyclic peptide Reagent B). The note with it: 0.5 nM PCSK9, 960 nM AF cyclic peptide Reagent B. On the procedure:
A solution containing 1 nM biotinylated PCSK9+2.5 nM Lance Streptavidin Europium (Strep-Eu) was made in 50 mM HEPES pH 7.4, 0.15 M NaCl, 5 mM CaCl2), 0.01% BSA, and 0.01% Surfactant P20. A separate solution containing 1920 nM of the AlexaFluor tagged cyclic peptide was made in the same buffer system. An Echo was used to transfer 0.075 ul of compound plus 0.675 ul of DMSO to each well of an assay plate followed by the addition of 15 ul of PCSK9+Stept-Eu and 15 ul of AF peptide. The final assay volume was 30.750 ul containing 0.5 nM PCSK9, 1.25 nM Strep-Eu, and 960 nM AF cyclic peptide. The reaction was incubated at room temperature for at least two hours prior to fluorescence measurements using an Envision Multilabel Reader. IC50 values were determined by fitting data to a sigmoidal dose-response curve using nonlinear regression. Ki was then calculated from the IC50 and the KD of AF cyclic peptide. Counts (B-counts) of the europium-labeled PCSK9 were followed to observe if compounds were adversely affecting PCSK9. A fall off of the B-counts likely indicated a false positive of inhibition. Data from this procedure was reported as “P=‘numerical value’ (nanomolar)”

The target in test [2] is T1, PCSK9. The test can be described thus: PCSK9 Alexa FRET Standard assay (displacement of AlexaFluor647 tagged cyclic peptide Reagent A). To be noted: 0.5 nM PCSK9, 20 nM AF cyclic peptide Reagent A. The protocol: A solution containing 1 nM biotinylated PCSK9+2.5 nM Lance Streptavidin Europium (Strep-Eu) was made in 50 mM HEPES pH 7.4, 0.15 M NaCl, 5 mM CaCl2), 0.01% BSA, and 0.01% Surfactant P20. A separate solution containing 40 nM of the AlexaFluor tagged cyclic peptide was made in the same buffer system. An Echo was used to transfer 0.750 ul of compound to an assay plate followed by the addition of 15 ul of PCSK9+Stept-Eu and 15 ul of AF peptide. The final assay volume was 30.750 ul containing 0.5 nM PCSK9, 1.25 nM Strep-Eu, and 20 nM AF cyclic peptide. The reaction was incubated at room temperature for at least two hours prior to fluorescence measurements using an Envision Multilabel Reader. IC50 values were determined by fitting data to a sigmoidal dose-response curve using nonlinear regression. Ki was then calculated from the IC50 and the KD of AF cyclic peptide. Counts (B-counts) of the europium-labeled PCSK9 were followed to observe if compounds were […]. A fall off of the B-counts likely indicated a false positive of inhibition. Data from this procedure was reported as “A=‘numerical value’ (nanomolar)”

Test [3] addresses human PCSK9 / human LDLR EGFa domain (Homo sapiens, UniProt Q8NBP7). The test can be described thus: TR-FRET assay of inhibition of the PCSK9-LDLR protein-protein interaction. The note with it: 20 nM human PCSK9, 20 nM human LDLR EGFa domain, 2 hours room temperature. The procedure, abridged: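 Compounds in dose-response are mixed with 20 nM human PCSK9 (avitag-biotinylated) and 20 nM his-tagged LDLR EGFa domain, plus 5 nM each streptavidin-Ulight and Eu-anti-6×His. After 2 h at room temperature in HEPES/NaCl/CaCl2 buffer with BSA and P20, TR-FRET is read and IC50 fitted (4-parameter).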

T1 sequence (Q8NBP7 153-692): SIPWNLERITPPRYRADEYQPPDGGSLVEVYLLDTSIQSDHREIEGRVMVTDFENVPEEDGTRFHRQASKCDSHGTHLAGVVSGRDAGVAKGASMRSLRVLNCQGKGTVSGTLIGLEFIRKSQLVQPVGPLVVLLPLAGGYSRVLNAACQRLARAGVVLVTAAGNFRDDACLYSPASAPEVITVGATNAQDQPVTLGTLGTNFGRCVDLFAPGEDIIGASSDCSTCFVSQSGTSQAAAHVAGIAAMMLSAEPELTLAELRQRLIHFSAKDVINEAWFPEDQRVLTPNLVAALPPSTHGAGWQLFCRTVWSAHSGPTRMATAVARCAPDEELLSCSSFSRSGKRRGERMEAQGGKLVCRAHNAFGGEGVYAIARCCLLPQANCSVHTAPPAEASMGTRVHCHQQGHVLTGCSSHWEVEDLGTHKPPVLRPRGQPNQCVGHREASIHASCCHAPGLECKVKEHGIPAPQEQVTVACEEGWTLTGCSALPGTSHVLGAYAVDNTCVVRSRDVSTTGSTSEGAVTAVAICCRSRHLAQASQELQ
Chain of human PCSK9 / human LDLR EGFa domain (Q8NBP7 153-692): as above

Regarding `C[C@@H]1NC(=O)[C@@H]2CCCN2C(=O)[C@H](Cc2ccc(C(C)(C)C)cc2)NC(=O)[C@H](Cc2c[nH]c3ccc(F)cc23)NC(=O)CNC(=O)[C@H](CCCCN)NC(=O)CCSCc2cccc(c2)CSC[C@@H](C(N)=O)NC(=O)[C@@H]2CCCN2C(=O)[C@H](Cc2ccc(O)cc2)NC1=O` [Compound 016] ([Mpa]KG[Trp(5-F)][Phe(4-tBu)]PAYPC-NH2; linker 1-10 via mXylylene), the IC50 (on PCSK9 [1]; on PCSK9 [2]; in test [3]) was 1 to 100 nM in each case.
With `C[C@@H]1NC(=O)[C@@H]2CCCN2C(=O)[C@H](Cc2csc3ccccc23)NC(=O)[C@H](Cc2c[nH]c3ccc(F)cc23)NC(=O)CNC(=O)[C@H](CCCCN)NC(=O)CCSCc2cccc(c2)CSC[C@@H](C(N)=O)NC(=O)[C@@H]2CCCN2C(=O)[C@H](Cc2ccc(O)cc2)NC1=O` [Compound 024] ([Mpa]KG[Trp(5-F)][Bta]PAYPC-NH2; linker 1-10 via mXylylene), the half-inhibitory concentration (IC50) (at PCSK9 [1]; at PCSK9 [2]; in test [3]) was 1 to 100 nM throughout.
Regarding `C[C@@H]1NC(=O)[C@@H]2CCCN2C(=O)[C@H](CC2CCCCC2)NC(=O)[C@H](Cc2c[nH]c3ccc(F)cc23)NC(=O)CNC(=O)[C@H](CCCCN)NC(=O)CCSCc2cccc(c2)CSC[C@@H](C(N)=O)NC(=O)[C@@H]2CCCN2C(=O)[C@H](Cc2ccc(O)cc2)NC1=O` [Compound 025] ([Mpa]KG[Trp(5-F)][Cha]PAYPC-NH2; linker 1-10 via mXylylene), the IC50 (at PCSK9 [1]; on PCSK9 [2]; in test [3]) was 1 to 100 nM in each case.
On to `C[C@@H]1NC(=O)[C@@H]2CCCN2C(=O)[C@H](CCC2CCCCC2)NC(=O)[C@H](Cc2c[nH]c3ccc(F)cc23)NC(=O)CNC(=O)[C@H](CCCCN)NC(=O)CCSCc2cccc(c2)CSC[C@@H](C(N)=O)NC(=O)[C@@H]2CCCN2C(=O)[C@H](Cc2ccc(O)cc2)NC1=O` [Compound 026] ([Mpa]KG[Trp(5-F)][hCha]PAYPC-NH2; linker 1-10 via mXylylene), for which the IC50 lay in the range of 100 to 500 nM on PCSK9 [1], 1 to 100 nM on PCSK9 [2] and 1 to 100 nM in test [3].
On to `C[C@H](O)[C@@H]1NC(=O)CNC(=O)[C@H](CCCCN)NC(=O)CCSCc2cccc(c2)CSC[C@@H](C(N)=O)NC(=O)[C@]2(C)CCCN2C(=O)[C@H](Cc2ccc(O)cc2)NC(=O)[C@H](Cc2cnc[nH]2)NC(=O)[C@H](CC(=O)O)NC(=O)[C@H](Cc2c[nH]c3ccc(F)cc23)NC1=O` [Compound 114] ([Mpa]KG[aThr][Trp(5-F)]DHY[αMeP]C-NH2; linker 1-10 via mXylylene), for which the 50% inhibitory concentration (IC50) (on PCSK9 [2]; in test [3]) was 100 to 1000 nM in each case.
With `NCCCC[C@@H]1NC(=O)CCSCc2cccc(c2)CSC[C@@H](C(N)=O)NC(=O)[C@@H]2CCCN2C(=O)[C@H](Cc2ccc(O)cc2)NC(=O)[C@H](Cc2cnc[nH]2)NC(=O)[C@H](CCO)NC(=O)[C@H](Cc2c[nH]c3ccc(F)cc23)NC(=O)[C@H](Cc2c[nH]c3ccc(F)cc23)NC(=O)CNC1=O` [Compound 117] ([Mpa]KG[Trp(5-F)][Trp(5-F)][hSer]HYPC-NH2; linker 1-10 via mXylylene), the results for the IC50 (at PCSK9 [2]; in test [3]) were 1 to 100 nM and 100 to 1000 nM, respectively.
Take `COc1ccc(C[C@@H]2NC(=O)[C@H](C)NC(=O)CN3C/C=C\COc4cccc(c4)C[C@H](NC(=O)CNC(=O)CCCCCNC(=O)c4ccc(cc4)C[C@@H](C(N)=O)NC(=O)[C@]4(C)CCCN4C2=O)C(=O)N[C@@H](Cc2c[nH]c4ccc(F)cc24)C3=O)cc1` [Compound 121] ([Ahx]G[X6][Trp(5-F)][X7]AY(Me)[αMeP][Phe(4-COOH)]-NH2; staple (Z) 3-5; lactam N-9): the values for the IC50 (at PCSK9 [2]; in test [3]) were 1 to 100 nM and 100 to 1000 nM, respectively.
The corresponding values for `COc1ccc(C[C@@H]2NC(=O)[C@H](C)NC(=O)CN3CCCC/C=C\CCCN(CC(=O)N[C@@H](Cc4c[nH]c5ccc(F)cc45)C3=O)C(=O)CNC(=O)CCCCCNC(=O)c3ccc(cc3)C[C@@H](C(N)=O)NC(=O)[C@]3(C)CCCN3C2=O)cc1` [Compound 122] ([Ahx]G[X4][Trp(5-F)][X5]AY(Me)[αMeP][Phe(4-COOH)]-NH2; staple (Z) 3-5; lactam N-9) are 100 to 1000 nM and 1000 to 12100 nM.
On the same counts, the results for `COc1ccc(C[C@@H]2NC(=O)[C@H](C)NC(=O)CN3CCCCCCCCCN(CC(=O)N[C@@H](Cc4c[nH]c5ccc(F)cc45)C3=O)C(=O)CNC(=O)CCCCCNC(=O)c3ccc(cc3)C[C@@H](C(N)=O)NC(=O)[C@]3(C)CCCN3C2=O)cc1` [Compound 123] are 1 to 100 nM and 100 to 1000 nM.
On the same counts, the results for `COc1ccc(C[C@@H]2NC(=O)[C@H](C)NC(=O)CN3CCCCOc4cccc(c4)C[C@H](NC(=O)CNC(=O)CCCCCNC(=O)c4ccc(cc4)C[C@@H](C(N)=O)NC(=O)[C@]4(C)CCCN4C2=O)C(=O)N[C@@H](Cc2c[nH]c4ccc(F)cc24)C3=O)cc1` [Compound 124] are 1 to 100 nM and 100 to 1000 nM.
For `COc1ccc(C[C@@H]2NC(=O)[C@H]([C@@H](C)O)NC(=O)CN3CCCCCOc4cccc(c4)C[C@@H](NC(=O)[C@@H](C)NC(=O)[C@H](C)NC(=O)CCSCc4cccc(c4)CSCCNC(=O)[C@]4(C)CCCN4C2=O)C(=O)N[C@@H](Cc2c[nH]c4ccc(F)cc24)C3=O)cc1` [Compound 125], the IC50 (on PCSK9 [2]; in test [3]) was 100 to 1000 nM in each case.
For `COc1ccc(C[C@@H]2NC(=O)[C@H]([C@@H](C)O)NC(=O)CN3CCCCOc4cccc(c4)C[C@H](NC(=O)[C@@H](C)NC(=O)[C@H](C)NC(=O)CCSCc4cccc(c4)CSCCNC(=O)[C@]4(C)CCCN4C2=O)C(=O)N[C@H](Cc2c[nH]c4ccc(F)cc24)C3=O)cc1` [Compound 126], the IC50 (on PCSK9 [2]; in test [3]) was 1 to 100 nM in each case.
Turning to `COc1ccc(C[C@@H]2NC(=O)[C@H](C)NC(=O)[C@@H]3CCC(=O)NCc4cccc(c4)C[C@H](NC(=O)CNC(C)=O)C(=O)N[C@@H](Cc4cn(c5ccc(F)cc45)Cc4cn(nn4)CC[C@@H](C(N)=O)NC(=O)[C@]4(C)CCCN4C2=O)C(=O)N3)cc1` [Compound 127], the half-maximal inhibitory concentration (IC50) on PCSK9 [2] was 1 to 100 nM; in test [3], 100 to 1000 nM.
On the same counts, the results for `COc1ccc(C[C@@H]2NC(=O)[C@H](C)NC(=O)[C@@H]3CCCN3C(=O)[C@@H]3Cc4cn(c5ccc(F)cc45)Cc4cn(nn4)-c4c(cccc4CSCCC(=O)N[C@H](C)C(=O)NCC(=O)N[C@@H](Cc4c[nH]c5ccc(F)cc45)C(=O)N3)CSCCNC(=O)[C@]3(C)CCCN3C2=O)cc1` [Compound 128] are 1 to 100 nM and 100 to 1000 nM.
Take `COc1ccc(C[C@@H]2NC(=O)[C@H]([C@@H](C)O)NC(=O)[C@@H]3CCCN3C(=O)[C@H]3Cc4cn(c5ccc(F)cc45)Cc4cn(nn4)-c4cc(cc(c4)CSCCC(=O)N[C@@H](C)C(=O)N[C@H](C)C(=O)N[C@@H](Cc4c[nH]c5ccc(F)cc45)C(=O)N3)CSCCNC(=O)[C@]3(C)CCCN3C2=O)cc1` [Compound 129]: the IC50 (at PCSK9 [2]; in test [3]) was 1000 to 12100 nM in each case.
For the molecule `COc1ccc(C[C@@H]2NC(=O)[C@H]([C@@H](C)O)NC(=O)[C@H]3C[C@@H](F)CN3C(=O)[C@H]3Cc4cn(c5ccc(F)cc45)Cc4cn(nn4)-c4cc(cc(c4)CSCCC(=O)N[C@@H](C)C(=O)N[C@H](C)C(=O)N[C@@H](Cc4c[nH]c5ccc(F)cc45)C(=O)N3)CSCCNC(=O)[C@]3(C)CCCN3C2=O)cc1` [Compound 130], the figures for the half-inhibitory concentration (IC50) at PCSK9 [1] and at PCSK9 [2] were 100 to 500 nM and 100 to 1000 nM, respectively.
The corresponding values for `COc1ccc(C[C@@H]2NC(=O)[C@H]([C@@H](C)OC)NC(=O)[C@H]3CCCN3C(=O)[C@H]3Cc4cn(c5ccc(F)cc45)Cc4cn(nn4)-c4cc(cc(c4)CSCCC(=O)N[C@@H](C)C(=O)N[C@H](C)C(=O)N[C@@H](Cc4c[nH]c5ccc(F)cc45)C(=O)N3)CSCCNC(=O)[C@]3(C)CCCN3C2=O)cc1` [Compound 131] are 1 to 100 nM and 1 to 100 nM.

The record behind these values is US11814445B2, “Cyclic polypeptides for PCSK9 inhibition” (Ra Pharmaceuticals, Inc., priority 2018, dated 2023).
